Like-named read-outs stand apart in the source and are kept apart here.
Assays:
[1] = target: T1, ecFolD ΔK54R55 (Escherichia coli, UniProt P24186, DEL54-55); assay: ecFolD ΔK54R55 mutant dehydrogenase (DH) enzyme assay; type: biochemical, E. coli
T1 construct: His-tag (TEV-cleavable, vector pHis-TEV); made in house; host or cells: E. coli BL21 (DE3)
Method: (§1) (6R,S)-5,10-Methylene-5,6,7,8-tetrahydrofolic acid ((6R,S)-5,10-CH2-THF) calcium salt and (6R,S)-5,10-Methenyl-5,6,7,8-tetrahydrofolic acid ((6R,S)-5,10-CH=THF) chloride were purchased from Schircks Laboratories (Bauma, Switzerland) and used as substrates for FolD dehydrogenase and cyclohydrolase enzyme assays, respectively. Only the R-isomer, which accounts for 50% of (6R,S)-5,10-CH2-THF and (6R,S)-5,10-CH=THF, respectively, is used by the enzyme. (6R,S)-5,10-CH2-THF was dissolved in N2-spargeled basic buffer (50 mM Tris-HCl (pH 8.0), 100 mM β-mercaptoethanol) as described by Varshney et al.[25]. (6R,S)-5,10-CH=THF was dissolved in DMSO as a 100 mM stock solution.
Because FolD is a bifunctional enzyme, dehydrogenase and cyclohydrolase activities were determined for FolD enzyme kinetics, respectively. The dehydrogenase activity of FolD was assayed for its substrate 5,10-CH2-THF and cofactor NADP^+ (in the case of MTHFD2, NAD^+ was used as the cofactor) based on monitoring the formation of 5,10-CH=THF, while the cyclohydrolase activity of FolD was determined for its substrate 5,10-CH=THF by monitoring the hydrolysis of […]. The enzyme kinetics for the dehydrogenase activity of all FolDs except hsMTHFD1_DC were determined at 30 °C in 50 mM Tris-HCl (pH 7.5), 30 mM β-mercaptoethanol. […]

[2] = target: T2, spFolD (Streptococcus pneumoniae serotype 4, UniProt Q97RI9); assay: SPR binding to spFolD; parameters: species or system S. pneumoniae
T2 construct: His-tag (TEV-cleavable, vector pHis-TEV); made in house; host or cells: E. coli BL21 (DE3)
T2 sequence (Q97RI9 whole entry): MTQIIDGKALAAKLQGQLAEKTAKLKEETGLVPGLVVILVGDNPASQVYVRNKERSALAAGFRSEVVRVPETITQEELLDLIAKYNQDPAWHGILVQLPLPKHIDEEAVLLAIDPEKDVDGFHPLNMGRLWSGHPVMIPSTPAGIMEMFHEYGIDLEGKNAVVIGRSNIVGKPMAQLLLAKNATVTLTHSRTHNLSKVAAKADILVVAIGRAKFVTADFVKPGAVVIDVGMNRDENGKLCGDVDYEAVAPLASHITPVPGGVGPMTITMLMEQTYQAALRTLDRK
Method: (§2) All surface plasmon resonance (SPR) experiments described in this study were performed on a Biacore X100 system. Different FolDs with or without His-tag were coupled on CM5 sensor chips (GE Healthcare) by the amine coupling method using a kit from GE Healthcare Life Sciences (Freiburg, Germany). A pH scouting process was performed before protein immobilization to test the most appropriate buffer and the protein concentration for protein coupling. Finally, 20 μg/mL of ecFolD in 10 mM maleate buffer (pH 6.8), 30 μg/mL of ecFolD Q98H in 10 mM maleate buffer (pH 6.3), 40 μg/mL of ecFolD K54N in 10 mM maleate buffer (pH 5.8), 20 μg/mL of spFolD in 10 mM maleate buffer (pH 6.0) and 15 μg/mL of MTHFD2 (His-tag cleaved) in 10 mM maleate buffer (pH 6.8) were used for coupling. In the protein immobilization procedure, the contact time was calculated based on the pH scouting results to achieve ~3000–5000 relative resonance units (RU). The buffer used in the SPR assays was 1× HBS-P buffer (10 mM HEPES pH 7.4, 150 mM NaCl, 0.05% Tween 20). The 1 mM stock solution of carolacton was prepared in 1× HBS-P buffer and diluted to different concentration ranges by two-fold serial dilution. In the SPR assay, the association time was 180 s and the dissociation time was 600 s. Data analysis was performed using the Biacore evaluation software. […]

[3] = target: T3, ecFolD Q98H (Escherichia coli, UniProt P24186, Q98H); assay: SPR binding to ecFolD Q98H; parameters: species or system E. coli
T3 construct: His-tag (TEV-cleavable, vector pHis-TEV); made in house; host or cells: E. coli BL21 (DE3)
Method: as §2

[4] = target: T2, spFolD; assay: spFolD dehydrogenase (DH) enzyme assay; type: biochemical, S. pneumoniae
Method: as §1
Because FolD is a bifunctional enzyme, dehydrogenase and cyclohydrolase activities were determined for FolD enzyme kinetics, respectively. The dehydrogenase activity of FolD was assayed for its substrate 5,10-CH2-THF and cofactor NADP^+ (in the case of MTHFD2, NAD^+ was used as the cofactor) based on monitoring the formation of 5,10-CH=THF, while the cyclohydrolase activity of FolD was determined for its substrate 5,10-CH=THF by monitoring the hydrolysis of […]. The enzyme kinetics for the dehydrogenase activity of all FolDs except hsMTHFD1_DC were determined at 30 °C in 50 mM Tris-HCl (pH 7.5), 30 mM β-mercaptoethanol. The hsMTHFD1_DC dehydrogenase activity was measured in 25 mM MOPS (pH 7.3), 30 mM β-mercaptoethanol at 30 °C. To measure the enzyme kinetic constants for 5,10-CH2-THF, for example in the case of ecFolD, the NADP concentration was fixed at 1 mM and the concentration of 5,10-CH2-THF varied from 5 to 1500 μM (R-isomer). Similarly, to measure the kinetic constants of ecFolD for NADP^+, the concentration of 5,10-CH2-THF (R-isomer) was fixed at 1 mM and the concentration of NADP^+ varied from 10 to 1500 μM. For different FolDs, the varied concentration range of substrates could be different. […] To monitor the formation of 5,10-CH=THF, the absorbance of the reaction mixture was monitored at 350 nm in micro UV cuvettes (BRAND, Essex, Connecticut, USA). The concentration of 5,10-CH=THF produced in the reaction was determined using an extinction co-efficient of 0.0249 μM^−1 cm^−1. […] The consumption of 5,10-CH=THF was measured by recording the absorbance of the reactions at 355 nm using the TECAN Infinite 200 PRO equipped with a monochromator. […] The inhibition constants (K i) of carolacton on FolD were determined by measuring the apparent K m when adding certain amounts of carolacton to the enzyme reactions. […] To compare the inhibition effects of carolacton between the different FolDs, the half maximal inhibitory concentration (IC50) of carolacton on the same amount of enzyme was determined for FolDs involved in this study. […]

## CO[C@H](CC(=O)O)[C@@H](C)C(=O)[C@H](C)/C=C(\C)[C@H]1OC(=O)[C@H](O)[C@H](O)/C=C/[C@H](C)CCC[C@@H]1C [carolacton]
[1]
  sensitivity of residual DH activity to carolacton: completely insensitive
[2]
  Kd: 27 nM
  koff: 0.0316 s⁻¹
[3]
  Kd: 20000 nM
  koff: 0.608 s⁻¹
[4]; 10 nM enzyme, read-out: IC50, carolacton inhibition on DH activity
  IC50: 36.8 nM
[4]; 10 nM enzyme, read-out: IC80, carolacton inhibition on DH activity
  IC80: 169 nM
[4]; vs 5,10-CH2-THF, read-out: Ki (5,10-CH2-THF), carolacton inhibition on DH activity
  Ki: 42.2 nM
[4]; vs NADP+, read-out: Ki (NADP+), carolacton inhibition on DH activity
  Ki: 34.2 nM
